# Data: patent publication US6391904B1, “Iminoguanidine derivatives, preparation method, use as medicines” (Aventis Pharma S.A., priority 1998, dated 2002)
# Target: human αvβ3 receptor (Homo sapiens, UniProt P05106+P06756)
# Assay: Kistrin/Vitronectin Receptor (αvβ3) ELISA test
# Assay type: binding
# Conditions: Kistrin-coated plates, 3 hours at ambient temperature, 4B12-HRP detection, read-out: K/VnR IC50
# Experimental: Pharmacological Test: Kistrin/Vitronectin Receptor (αvβ3) ELISA Test Protocol:
# 96-well MaxiSorp plates are coated overnight at […] with 100 μl of Kistrin at 1 μg/ml (dilution in coating buffer: 0.05M carbonate)/NaOH pH 9.6. The next day, the wells are emptied and the ligands (kistrin) are then fixed (fixation buffers: PBS containing 0.5% BSA (pH=7.4)) for 1 hour at ambient temperature under gentle agitation of 125 rpm. The wells are washed six times (washing buffer: PBS containing 0.05% Tween 20 (pH 7.7) then the following is added per well and in this order:
# 40 μl of incubation buffer
# 10 μl of the dilution of the product to be tested (the products are diluted in a 50:50 DMSO/water mixture)
# 50 μl of human αvβ3 receptor (cf Pytel et al. Methods Enzymol. (1987) 144 (Dilution in incubation buffer, adapted according to the batch of receptor and according to the ligand). The ligand, the αvβ3 receptor and the products to be studied are incubated for 3 hours at ambient temperature with gentle agitation of 125 rpm.
# The wells are again washed six times, then incubated for 2 hours at ambient temperature with mild agitation of 125 rpm, in the presence of 100 μl of anti-receptor antibody coupled to a peroxidase (The 4B12-HRP antibody is diluted in incubation buffer (50 mM TRIS pH 7.4; 0.5% BSA; 0.05% Tween 20; 1 mM MnCl2; 50 μM CaCl2; 50 μM MgCl2; 100 mM NaCl). The dilution is to be adapted according to the batch of receptor.
# The wells are then washed six times before measurement of the ligand-receptor bond is carried out using a peroxidase developer kit (TBM Microwell Peroxidase Substrate System Kirkegaard; Ref cat 50-76-00).
# This kit contains a flask A of substrate (3,3′,5,5′-tetramethylebenzidine at 0.4 g/l) and a flask B (H2O2 to 0.02% in Citrate/Citric acid). Extemporaneously, one volume of A is mixed with one volume of B, then the reaction mixture is distributed at a rate of 100 μl/wells.
# The enzymatic reaction develops between 6 to 10 minutes for Kistrin/αvβ3 then its development is stopped by the addition of 100 μl of 1M phosphoric acid. The optical density is determined at 450 nm.
# Expression of the Results
# The following curve is plotted: the bond percentage as a function of the logarithm of each concentration of the tested product.
# For each product IC50 is determined according to the following formula: IC50=(B0+Bmin)/2 B0=Maximum bond in the absence of any product Bmin=Minimum bond in the presence of the highest concentration of the product.
# Chain of human αvβ3 receptor (P06756 31-889 limits assumed): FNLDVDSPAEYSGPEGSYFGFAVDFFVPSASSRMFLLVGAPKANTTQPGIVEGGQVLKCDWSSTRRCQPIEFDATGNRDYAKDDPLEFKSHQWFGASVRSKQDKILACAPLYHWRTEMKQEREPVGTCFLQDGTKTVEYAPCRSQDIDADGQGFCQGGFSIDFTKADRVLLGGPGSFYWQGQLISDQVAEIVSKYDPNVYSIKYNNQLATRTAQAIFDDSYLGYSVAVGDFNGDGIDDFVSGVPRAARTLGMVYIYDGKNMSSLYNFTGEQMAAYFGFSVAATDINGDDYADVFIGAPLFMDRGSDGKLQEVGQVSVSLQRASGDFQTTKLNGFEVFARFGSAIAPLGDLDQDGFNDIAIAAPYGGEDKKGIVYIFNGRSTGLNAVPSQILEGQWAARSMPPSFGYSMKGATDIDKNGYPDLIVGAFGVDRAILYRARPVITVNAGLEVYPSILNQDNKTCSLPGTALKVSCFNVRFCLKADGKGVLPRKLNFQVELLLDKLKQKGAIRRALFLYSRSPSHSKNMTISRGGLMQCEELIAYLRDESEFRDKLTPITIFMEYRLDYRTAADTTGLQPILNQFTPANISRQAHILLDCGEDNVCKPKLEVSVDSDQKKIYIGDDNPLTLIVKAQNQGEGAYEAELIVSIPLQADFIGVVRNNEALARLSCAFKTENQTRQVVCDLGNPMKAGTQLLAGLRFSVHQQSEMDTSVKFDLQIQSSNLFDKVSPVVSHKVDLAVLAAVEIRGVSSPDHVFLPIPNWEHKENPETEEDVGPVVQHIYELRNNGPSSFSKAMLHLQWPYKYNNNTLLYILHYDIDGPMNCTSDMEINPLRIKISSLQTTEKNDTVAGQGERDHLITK
# Chain of human αvβ3 receptor (P06756 891-1048 limits assumed): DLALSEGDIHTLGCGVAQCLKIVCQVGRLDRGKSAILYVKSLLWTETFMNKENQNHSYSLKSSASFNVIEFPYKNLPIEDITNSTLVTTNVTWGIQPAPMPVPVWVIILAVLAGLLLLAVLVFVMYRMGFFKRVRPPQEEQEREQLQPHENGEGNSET
# Chain of human αvβ3 receptor (P05106 27-788): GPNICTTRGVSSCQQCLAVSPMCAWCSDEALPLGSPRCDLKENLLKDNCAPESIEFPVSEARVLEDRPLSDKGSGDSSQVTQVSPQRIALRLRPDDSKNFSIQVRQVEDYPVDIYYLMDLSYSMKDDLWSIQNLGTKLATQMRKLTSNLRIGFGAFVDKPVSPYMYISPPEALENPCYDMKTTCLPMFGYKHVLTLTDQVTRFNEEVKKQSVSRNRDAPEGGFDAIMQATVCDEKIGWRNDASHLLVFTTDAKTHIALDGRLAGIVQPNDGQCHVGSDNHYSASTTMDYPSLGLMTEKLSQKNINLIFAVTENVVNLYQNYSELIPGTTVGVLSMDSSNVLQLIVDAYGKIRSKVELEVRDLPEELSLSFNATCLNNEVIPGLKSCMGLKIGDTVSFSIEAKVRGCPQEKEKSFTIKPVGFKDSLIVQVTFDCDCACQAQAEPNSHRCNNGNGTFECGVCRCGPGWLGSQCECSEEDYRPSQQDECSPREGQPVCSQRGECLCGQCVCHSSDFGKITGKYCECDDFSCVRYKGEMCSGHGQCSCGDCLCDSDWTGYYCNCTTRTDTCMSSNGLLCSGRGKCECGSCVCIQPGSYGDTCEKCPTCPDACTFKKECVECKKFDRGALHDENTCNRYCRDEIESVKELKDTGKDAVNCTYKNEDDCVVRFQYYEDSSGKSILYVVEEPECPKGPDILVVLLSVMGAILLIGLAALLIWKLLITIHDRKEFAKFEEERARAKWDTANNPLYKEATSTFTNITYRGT
row,SMILES,IC50 [nM]
1,"O=C(NC(CCOc1cccc(CC/C=N/NC2=NCCN2)c1)C(=O)O)OCc1ccccc1 (stereo not drawn) [ex 12, O-[3-[3-[(4,5-Dihydro-1H-imidazol-2-yl) hydrazono]propyl]-phenyl]-N-[(phenylmethoxy)carbonyl]-homoserine]",960
2,"CC(CCc1ccc(OCCC(NC(=O)OCc2ccccc2)C(=O)O)cc1)=NNC(=N)N (mixture of isomers) [ex 2, O-[4-[3-[(Aminoiminomethyl)hydrazono]butyl]phenyl]-N-[(phenylmethoxy)carbonyl]-homoserine]",1350
3,O=C(NC(CCOc1ccc(/C=N/NC2=NCCN2)cc1)C(=O)O)OCc1ccccc1 (stereo not drawn) [ex 13],292
4,"C/C(Cc1ccc(OCCC(NC(=O)OCc2ccccc2)C(=O)O)c(F)c1)=N\NC1=NCCN1 (racemic) [ex 7, O-[4-[2-[(4,5-Dihydro-1H-imidazol-2-yl)hydrazono]propyl]-2-fluorophenyl]-N-[(phenylmethoxy)carbonyl]-homoserine]",22
5,"CC(CCc1cccc(OCCC(NC(=O)OCc2ccccc2)C(=O)O)c1)=NNC1=NCCN1 (mixture of isomers) [ex 9, O-[3-[3-[(4,5-Dihydro-1H-imidazol-2-yl)hydrazono]butyl]-phenyl]-N-[(phenylmethoxy)carbonyl]-homoserine]",2000
6,"CC(CCc1ccc(OCCC(NC(=O)OCc2ccccc2)C(=O)O)cc1)=NNC1=NCCN1 (mixture of isomers) [ex 1, O-[4-[3-[(4,5-Dihydro-1H-imidazol-2-yl)hydrazono]butyl]-phenyl]-N-[(phenylmethoxy)carbonyl]-homoserine.]",150
7,"N=C(N)NN=CCCc1cccc(OCCC(NC(=O)OCc2ccccc2)C(=O)O)c1 (mixture of isomers) [ex 11, O-[3-[3-[(Aminoiminomethyl)hydrazono]propyl]phenyl]-N-[(phenylmethoxy)carbonyl]-homoserine]",3250
8,CC(Cc1ccc(OCCC(NC(=O)OCc2ccccc2)C(=O)O)cc1)=NNC1=NCCN1 (mixture of isomers) [ex 5],22
9,"N=C(N)NN=CCCc1ccc(OCCC(NC(=O)OCc2ccccc2)C(=O)O)cc1 (mixture of isomers) [ex 4, O-[4-[3-[(Aminoiminomethyl)hydrazono]propyl]phenyl]-N-[(phenylmethoxy)carbonyl]-homoserine]",450
10,"COc1cc(C/C(C)=N/NC2=NCCN2)ccc1OCCC(NC(=O)OCc1ccccc1)C(=O)O (racemic) [ex 6, O-[4-[2-[(4,5-Dihydro-1H-imidazol-2-yl)hydrazono]propyl]-2-methoxyphenyl]-N-[(phenylmethoxy)carbonyl]-homoserine]",12
11,"CC(Cc1cccc(OCCC(NC(=O)OCc2ccccc2)C(=O)O)c1)=NNC1=NCCN1 (mixture of isomers) [ex 10, O-[3-[2-[(4,5-Dihydro-1H-imidazol-2-yl) hydrazono]propyl]-phenyl]-N-[(phenylmethoxy)carbonyl]-homoserine]",355
12,"O=C(NC(CCOc1ccc(CC/C=N\NC2=NCCN2)cc1)C(=O)O)OCc1ccccc1 (racemic) [ex 3, O-[4-[3-[(4,5-Dihydro-1H-imidazol-2-yl)hydrazono]propyl]-phenyl]-N-[(phenylmethoxy)carbonyl]-homoserine]",110
